Experimental data from US20150329918A1, “JAGGED1 AS A MARKER AND THERAPEUTIC TARGET FOR BREAST CANCER BONE METASTASIS” (The Trustees of Princeton University, priority 2011, published 2015).

Legend:
[1] = system: pre-osteoclast Raw 264.7 cells; test: Osteoclastogenesis coculture assay (TRAP staining); type: cell-based, mouse; settings: 15-fold increase by JAG1 OE relative to controls; 1 μM MRK-003; FIG. 15A
Experimental: After seeding 5×10^4 control or JAG1 OE tumor cells/well into 12-well plates, murine pre-osteoclast Raw 264.7 (2×10^5 cells/well) or MOCP5 (5×10^5 cells/well) cells in media containing 30 ng/ml RANKL and DMSO or 1 μM MRK-003 were added the next day. Media were changed every 2 days. TRAP staining was performed on day 6 using a leukocyte acid phosphatase kit (Sigma). TRAP^+-multinucleated cells were scored as mature osteoclasts. The number of nuclei per osteoclast was quantified using TRAP-stained images. Mouse specific qRT-PCR primers were used to selectively quantify Raw264.7 osteoclast gene expression levels after 6 days of coculture (see Table 1 below).
For primary osteoclast coculture assays, bone marrow cells were flushed out from femora and tibiae of 4- to 6-week-old wild-type FVB mice and plated in basal culture medium overnight. The next day, nonadherent cells were added at 1×10^6/well to 12-well plates that were previously seeded with either control or JAG1 OE tumor cells supplemented with 50 ng/ml RANKL and 50 ng/ml M-CSF. Medium was changed every 3 days. TRAP staining and scoring were performed on days 10-12.

JAGGED1 = JAGGED1 mRNA and protein after TGFβ treatment of breast cancer cells in vitro; type: cell-based, human; settings: several breast cancer cell lines; FIG. 5A
Experimental: SDS lysis buffer (0.05 mM Tris-HCl, 50 mM BME, 2% SDS, 0.1% Bromophenol blue, 10% glycerol) was used to collect protein from cultured cells. Heat denatured protein was then equally loaded, separated on an SDS-page gel, transferred onto a pure nitrocellulose membrane (BioRad), and blocked with either 5% milk or 5% BSA. Primary antibodies for immunoblotting included: goat anti-JAGGED1 (1:1000 dilution, sc-6011, Santa Cruz), rabbit anti-phosho-SMAD2 (1:1000 dilution, Ser465/467, Cell Signaling), and mouse anti-β-actin (1:4000 dilution, Abcam) for loading control. Membranes were incubated with horseradish peroxidase (HRP)-conjugated anti-mouse secondary antibody (1:2000 dilution, GE Healthcare) or anti-rabbit secondary antibody (1:2000 dilution, GE Healthcare) for 1 h and chemiluminescence signals were detected by ECL substrate (GE Healthcare).
(§1) For in vitro experiments, GSI-IX (Calbiochem) and TGFβ Receptor 1 (EMD Biosciences 616451) were dissolved in DMSO. […] RNA and protein were collected and analyzed for JAGGED1 expression as described above. […]
RNA from in vitro cultured cells or flow cytometry-separated cells was collected in RLT lysis buffer and extracted with RNeasy mini kit (Qiagen). […] Quantitative RT-PCR was performed using Power Syber Green PCR Master Mix (Applied Biosystems) with the ABI Prism 7900HT thermocycler (Applied Biosystems) according to the manufacturer's protocol. […]

[2] = system: SCP28 tumor cells cocultured with MC3T3-E1 osteoblasts; test: Osteoblast coculture tumor cell quantification by luciferase assay; type: cell-based, human; settings: cocultured with MC3T3-E1; hIL-6 10 or 100 ng/ml; FIG. 14B
Experimental: MC3T3-E1 cells were seeded at 2×10^5 cells/well in 12-well plates. After confluence was achieved, luciferase/GFP-labeled (GFP+) control and JAG1 OE cells were added at 1×10^4 cells/well in triplicate and treated with DMSO or 1 μM MRK-003. Media supplemented with appropriate drugs were changed every 2 days. After 6 days the coculture was subjected to a luciferase assay to selectively quantify the number of tumor cells. These values were normalized against luciferase quantification of 12-well plates seeded with tumor cells alone.
For transfection experiments, MC3T3-E1 osteoblasts were seeded at 2×10^5 cells/well in 12-well plates and grown to 95% confluence. […] Following 6 days, the coculture was lysed and subjected to a luciferase assay to selectively quantify the number of tumor cells. For gene expression analysis, RNA from cocultures was collected in RLT lysis buffer, extracted with RNeasy mini kit (Qiagen), and subjected to quantitative RT-PCR.
as §1

[3] = system: SCP2 and 1833 bone metastasis; test: Bone metastasis xenograft with JAG1 knockdown SCP2 and 1833 cells; type: in vivo, mouse
Experimental: (§2) For bone metastsis studies, 10^5 tumor cells were injected into the left cardiac ventricle of anesthetized female athymic Ncr-nu/nu or BALB/c mice. Development of metastases was monitored by BLI. Bioluminescence images were acquired with a Xenogen IVIS 200 Imaging System. Analysis was performed with Living Image software by measuring photon flux in the hindlimbs of mice. Data were normalized to the signal on day 7. Bone metastasis-free survival curves represent the time point at which each mouse developed bone metastasis by threshold BLI signals in the hindlimbs. For the orthotopic xenograft model, mammary fat pad injections and primary tumor size measurements were performed following the procedure described previously (Minn et al., 2005, which is incorporated herein by reference as if fully set forth).
After 48 hours viruses were collected, filtered and used to infect target cells in the presence of 5 μg/ml polybrene. The infected cells were selected with 1 μg/ml puromycin. […]
Hindlimb bones were excised from mice at the end point of each experiment, immediately after the last BLI time point. […] For quantitative analysis of lesion area, a 5× objective was used to focus on the tumor region of interest and images were acquired using the AxioCamICc3 camera set to an exposure of 100 ms. Lesions that were larger than the field of view were quantified by acquiring multiple images to encompass the entire lesion. The “spline” function of the AxioVision software was used to outline the region of interest and subsequently quantify the lesion area. Osteoclast number was assessed as multinucleated TRAP^+ cells along the tumor-bone interface and reported as number/mm of interface (Yin et al., 2003, which is incorporated herein by reference as if fully set forth). […]

[4] = system: SCP2 and 1833 tumor cells; test: Proliferation of JAG1 KD tumor cells in culture or as mammary tumors; set-up: species or system human
Experimental: as §2
After 48 hours viruses were collected, filtered and used to infect target cells in the presence of 5 μg/ml polybrene. The infected cells were selected with 1 μg/ml puromycin. For stable overexpression in the SCP28 human breast cancer cell line, human JAGGED1 cDNA was PCR amplified using the primer pair: 5′-[…]-3′ (Sense) [SEQ ID NO: 2] and 5′-[…]-3′ (Antisense) [SEQ ID NO: 3] and cloned into the retroviral expression vector pMSCVpuro using XhoI and EcoRI restriction sites (underlined=restriction sites, bold=human JAG1-specific sequences). […]

C[C@H](NC(=O)Cc1cc(F)cc(F)c1)C(=O)N[C@H](C(=O)OC(C)(C)C)c1ccccc1 [GSI IX]
TRAP+ osteoclasts in JAG1 OE cocultures [1]: confirmed

TGFβ: Recombinant human TGFβ1 (R&D systems)
Jagged1 expression upon TGFβ stimulation (JAGGED1): potently upregulated

rIL-6: Recombinant human IL-6 (R&D systems)
proliferative ability of control tumor cells [2]: significantly enhanced

rJAG1: Recombinant rat JAGGED1/Fc chimera (R&D systems)
TRAP+ osteoclasts in JAG1 OE cocultures [1]: confirmed

B1: JAG1 KD: shRNA targeting CGTACAAGTAGTTCTGTAT of JAG1 (SEQ ID NO: 1; same as sense strand SEQ ID NO: 78, shRNA SEQ ID NO: 80) (nucleic acid)
chain: GATCTCCCGTACAAGTAGTTCTGTATTTCAAGAGAATACAGAACTACTTGTACGTTTTTGGAAAAGCTTTTCCAAAAACGTACAAGTAGTTCTGTATTCTCTTGAAATACAGAACTACTTGTACGGGA
onset of bone metastasis ([3]; SCP2 and 1833 with JAG1 shRNA): delayed
survival of mice ([3]; SCP2 and 1833 with JAG1 shRNA): significantly extended
decrease in the number of TRAP+ osteoclasts along the bone tumor interface ([3]; histological analysis): 2 fold
ability of tumor cells to proliferate in culture or as mammary tumors in mice [4]: did not alter
